Assay results published in patent US8466286B2, “SMMR (small molecule metabolite reporters) for use as in vivo glucose biosensors” (Cercacor Laboratories, Inc., priority 2003, dated 2013).
Like-named read-outs stand apart in the source and are kept apart here.

Legend:
[1] = Glucose response rate in stirred cuvette, pH 8 phosphate buffer; conditions: 100 μL of 300 mg/dL glucose in pH 8 buffer; ex 340 nm, em 440 nm; read every 15 seconds
Procedure: Arg-327 unprotected batches were prepared. One batch was supplied as a yellow powder and the other as a concentrated solution in deuterated methanol. A small sample of these materials was taken and dissolved in 3 ml of pH 8 phosphate buffer. The fluorescence of these materials was excited at 340 nm and the emission monitored at 440 nm. The fluorescence was monitored every 15 seconds in a stirred cuvette. After about 3 minutes 100 μL of 300 mg/dL glucose in pH 8 buffer was added. […] Similar results were obtained for both samples.

PHK cells = test: In-vitro detection in PHK cells loaded with reporter, two-photon fluorescent imaging; assay type: cell-based; conditions: 50 micromolar reporter; glucose increased to 300 mg/dl; EM 440 nm, 2P excitation 705 nm
Procedure: PHK cells were loaded with AF-327d reporter, at 50 micromolar concentration, in buffer. Fluorescence was measured using a two-photon fluorescent imaging system at approximately EM 440 nm, and excitation at (2P) 705 nm. Pictures taken 10 minutes apart show a slight change in fluorescence intensity upon increasing the glucose concentration to 300 mg/dl in the cell buffer medium. This is seen clearly, as a 20% decrease in time course of fluorescence.

[2] = for response to glucose in vitro: addition of glucose
living cells = test: Membrane potential (Rh123 fluorescence quenching) to track D-glucose in living cells; assay type: cell-based; conditions: glucose 0 to 5 mg/dL (0.28 mM)
Procedure: The fluorescence quenching is an indication of membrane potential changes within living cells with respect to an increase in glucose concentration, as shown in FIG. 17 (glucose from 0 to 400 mg/dL) and FIG. 18 (glucose from 0 to 66 mg/dL).
The saturation point value was expected to be between 0.0 and 2 mg/dL.

[3] = glucose zero to 300 mg/dL, in vitro

SMILES | response to glucose in vitro [2] | increase of fluorescence intensity with glucose [2, 3] | further results
O=C(Nc1ccc2c(C(F)(F)F)cc(=O)oc2c1)c1ccc(B(O)O)cc1 [AF-327d] | stronger response to glucose than other published compounds | 60% | glucose response rate (fluorescence after glucose addition) [1]: increased immediately; decrease in time course of fluorescence (PHK cells): 20%; change of absorption spectrum at the excitation wavelength as a function of glucose concentration ([2]; excitation 375 nm): less than 10%; increase of fluorescence intensity with glucose ([2]; glucose range of 200 mg/dL, excitation 375 nm, emission 400-550 nm): at least 40%
O=C(Nc1ccc([N+](=O)[O-])cc1)c1ccc(B(O)O)cc1 [AF-339] | weaker than AF-327 | – | –
O=C(/C=C/c1ccc(B(O)O)cc1)c1cc2ccccc2oc1=O [AF-343] | No fluorescence or glucose effect | – | –
O=C(Nc1ccc2oc(=O)c3ccccc3c2c1)c1ccc(B(O)O)cc1 [AF-345] | – | 30% | –
COC(=O)c1ccccc1-c1c2ccc(=N)cc-2oc2cc(N)ccc12.Cl [Rh123] | – | – | Rh123 fluorescence with increasing glucose levels (living cells): approximate linear decrease
